Results taken from ChEMBL document CHEMBL1201862, “PubChem BioAssay data set” (2004).
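Growth conditions: 96-well plates. Treatment: test compound, 48 hours, 5 concentrations. Analysis: linear interpolation between bracketing concentrations; unreached endpoints set to highest concentration. GI50 marks 50% less growth.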 Active and inactive are the calls of the source. No stated cut-off is given here; in the data, active = GI50 up to about 1.1 µM and inactive = higher.

What was measured:
Assay in all cases: NCI tumour cell line growth inhibition, 48 h
ACHN = system: ACHN
CCRF-CEM = system: CCRF-CEM
HCC 2998 = system: HCC 2998
HCT-116 = system: HCT-116
HOP-92 = system: HOP-92
LOX IMVI = system: LOX IMVI
Malme-3M = system: Malme-3M
NCI-H23 = system: NCI-H23
NCI-H460 = system: NCI-H460
OVCAR-8 = system: OVCAR-8
SK-MEL-28 = system: SK-MEL-28
SK-MEL-2 = system: SK-MEL-2
SN12C = system: SN12C
SNB-19 = system: SNB-19
U-251 = system: U-251

Measured: GI50

Cc1ccc(NC(=O)C(=O)C2C(=O)NC(=O)NC2=O)c(C)c1
inactive: ACHN > 100 µM | CCRF-CEM > 100 µM | HCC 2998 > 100 µM | HCT-116 > 100 µM | HOP-92 > 100 µM | LOX IMVI > 100 µM | Malme-3M > 100 µM | NCI-H23 > 100 µM | NCI-H460 > 100 µM | OVCAR-8 > 100 µM | SK-MEL-28 > 100 µM | SK-MEL-2 > 100 µM | SN12C 14.9 µM | SNB-19 > 100 µM | U-251 > 100 µM

C[N+](C)(C)CC(=O)N/N=C(\C(=O)Nc1ccc(Cl)cc1)C1C(=O)N(c2ccccc2)N=C1N (centres undefined)
inactive: ACHN > 100 µM | CCRF-CEM > 100 µM | HCC 2998 > 100 µM | HCT-116 > 100 µM | HOP-92 > 100 µM | LOX IMVI > 100 µM | Malme-3M > 100 µM | NCI-H23 > 100 µM | NCI-H460 > 100 µM | OVCAR-8 > 100 µM | SK-MEL-28 > 100 µM | SK-MEL-2 > 100 µM | SN12C > 100 µM | SNB-19 > 100 µM | U-251 > 100 µM

Nc1ccc2ncc(NCc3ccc(F)cc3)nc2c1
inactive: ACHN 64.9 µM | CCRF-CEM > 100 µM | HCC 2998 > 100 µM | HCT-116 > 100 µM | HOP-92 53.1 µM | LOX IMVI 75 µM | Malme-3M > 100 µM | NCI-H23 > 100 µM | NCI-H460 74.6 µM | OVCAR-8 90.4 µM | SK-MEL-28 > 100 µM | SK-MEL-2 > 100 µM | SN12C 87.5 µM | SNB-19 > 100 µM | U-251 > 100 µM

COC(=O)C(C(=O)Cc1ccccc1[N+](=O)[O-])C(=O)OC
inactive: ACHN > 100 µM | CCRF-CEM 74.6 µM | HCC 2998 > 100 µM | HCT-116 > 100 µM | HOP-92 > 100 µM | LOX IMVI > 100 µM | Malme-3M > 100 µM | NCI-H23 > 100 µM | NCI-H460 > 100 µM | OVCAR-8 > 100 µM | SK-MEL-28 > 100 µM | SK-MEL-2 > 100 µM | SN12C > 100 µM | SNB-19 > 100 µM

O=C1C[C@H]2CCCN2[C@@H](c2ccccc2)C1
inactive: ACHN > 100 µM | CCRF-CEM > 100 µM | HCC 2998 > 100 µM | HCT-116 > 100 µM | HOP-92 > 100 µM | LOX IMVI > 100 µM | Malme-3M > 100 µM | NCI-H23 > 100 µM | NCI-H460 > 100 µM | OVCAR-8 > 100 µM | SK-MEL-28 > 100 µM | SK-MEL-2 > 100 µM | SN12C > 100 µM | SNB-19 > 100 µM | U-251 > 100 µM
